Experiments:
[1] = system: patients with Ménière's disease; test: Randomized, double blind, placebo-controlled cross-over clinical trial: tinnitus loudness after intratympanic injection; format: in vivo, human; settings: for Effect on tinnitus loudness: intratympanic injection; for Reduction of tinnitus loudness in decibels, Day 5: Day 5 after initiation; for Reduction of tinnitus loudness in decibels, Day 5 / Reduction of tinnitus loudness in decibels, Day 15 / Reduction of tinnitus loudness in decibels, Day 29: intratympanic once daily for 3 days, vs placebo, baseline-corrected, mean ± SEM, lithium salt 450 μg/ml, isopropyl ester 50 μg/ml; for Reduction of tinnitus loudness in decibels, Day 15: Day 15 after initiation; for Reduction of tinnitus loudness in decibels, Day 29: Day 29 after initiation
Text: The invention is exemplified by the following non-limiting example based on a recently performed clinical trial: Patients suffering from unilateral Ménière's disease were enrolled in a randomized, double blind, placebo-controlled clinical trial. The study followed a cross-over protocol. The patients received an intratympanic injection (injection into the middle ear cavity) of latanoprost lithium salt or placebo once daily during the three first days of each treatment period. The effect on hearing and tinnitus loudness was measured on Days 5, 15 and 29. Thereafter there was a treatment-free cross-over period of 2 months. After the cross-over period the patient entered the second treatment period and latanoprost lithium salt or placebo was again administered by intratympanic injection once daily during the three first days, and the same measurements of hearing and tinnitus were repeated. Latanoprost lithium salt was tested at 50 μg/ml, 150 μg/ml and 450 μg/ml concentration, and in addition one group of patients received latanoprost (isopropyl ester) at 50 μg/ml concentration according to the same cross-over study protocol.

[2] = Lipophilicity comparison; format: physicochemical; settings: ratio isopropyl ester / lithium salt
Text: Although the concentration of latanoprost lithium salt was 9 times higher than the concentration of latanoprost (isopropyl ester) we believe that the main additional effect (compared with latanoprost) is based on the lithium salt because the lipophilicity of latanoprost (isopropyl ester) is more than 1000 times higher than the lipophilicity of the latanoprost lithium salt. Consequently the ester can be expected to traverse biological membranes such as the round window membrane much better than the water-soluble salt. […] The concentration of 450 μg/ml of latanoprost lithium salt corresponds to approximately 1 mM lithium, i.e. a concentration within the therapeutic range of lithium. The lower concentrations 150 μg/ml and 50 μg/ml of latanoprost lithium salt had no effect which can be anticipated if the effect on tinnitus loudness at least partly is based on the pharmacological effect of lithium since the two lower concentrations are below the therapeutic concentration range of lithium.

[3] = system: patients suffering from Ménière's disease; settings: cited from earlier work
[4] = man; lower ineffective, above 1.5 mM side effects may arise; cited from earlier work

O=C([O-])CCC/C=C\C[C@@H]1[C@@H](CC[C@@H](O)CCc2ccccc2)[C@H](O)C[C@@H]1O.[Li+] [Latanoprost acid lithium salt, latanoprost acid lithium salt]
Effect on tinnitus loudness ([1]; 50 μg/ml): no effect | Effect on tinnitus loudness ([1]; 150 μg/ml): no effect | Reduction of tinnitus loudness in decibels, Day 5 [1]: −10.8 ± 3.5 decibels | Reduction of tinnitus loudness in decibels, Day 15 [1]: −15.4 ± 6.4 decibels | Reduction of tinnitus loudness in decibels, Day 29 [1]: −10.5 ± 3.9 decibels

CC(C)OC(=O)CCC/C=C\C[C@@H]1[C@@H](CC[C@@H](O)CCc2ccccc2)[C@H](O)C[C@@H]1O [Latanoprost isopropyl ester, latanoprost]
Reduction of tinnitus loudness in decibels, Day 5 [1]: −5.5 ± 2.7 decibels | Reduction of tinnitus loudness in decibels, Day 15 [1]: −9.5 ± 5.8 decibels | Reduction of tinnitus loudness in decibels, Day 29 [1]: −9.6 ± 4.6 decibels | Lipophilicity relative to latanoprost lithium salt [2]: more than 1000 times | Effect on hearing [3]: improved hearing | Effect on vertigo [3]: reduced vertigo | Effect on tinnitus ([3]; intratympanic injection): may reduce tinnitus

[Li] [Lithium, lithium]
Therapeutic plasma concentration [4]: 0.5 to 1.5 mM

— patent US20070219272A1, “Novel method and compositions for treatment of tinnitus” (priority 2006, published 2007)
